The values below are quoted from earlier work in US20240148815A1, “FOOD SUPPLEMENT TO PROMOTE BODY WEIGHT LOSS” (NGN HEALTHCARE-NEW GENERATION NUTRACEUTICALS S.R.L., priority 2021, published 2024).

Structures can show the parent of a compound that is named as a salt.

Data set [1] has as its system NCI-716 and STC-1 cells (T2R38). The note with it: by interacting with T2R38.
For a further data set, the system named is young healthy subjects. The note with it: oral, encapsulated, 18 mg.
In the next data set the test system is overweight women. To be noted: 4 weeks, calorie-reduced diet.
Another data set deals with rodents. To be noted: intragastric preload prior to enteral glucose.
Another data set concerns obese mice. The note with it: intragastric, 4 weeks.

In the case of `NC(=S)Nc1ccccc1` [phenylthiourea], in data set [1], the GLP-1 secretion result was “dose-dependently stimulate”.

Consider `C=C[C@H]1C[N@@]2CC[C@H]1C[C@H]2[C@H](O)c1ccnc2ccc(OC)cc12` [quinine HCl], for which, in the data set on young healthy subjects, the CCK plasma concentrations result is on record as “increased” and the “energy intake during an ad libitum meal” value is on record as “reduced”.

As to `N[C@@H](Cc1c[nH]c2ccc(O)cc12)C(=O)O` [5-hydroxytryptophan], in the data set with overweight women, the BMI result is listed as “decrease” and the feeling of satiety result is given as “significantly increased”.

As to `CC[N+](CC)(CC(=O)Nc1c(C)cccc1C)Cc1ccccc1` [DB, denatonium benzoate], in the data set with rodents, the GLP-1 plasma levels result is recorded as “increase”, the blood glucose entry is “reduction”, the gastric emptying entry is given as “slowing” and the insulin concentration result is recorded as “increase”. Also, in the data set with NCI-H716 cells, the PYY secretion entry is “stimulates”. Further, the “meal-induced GLP-1 secretion” value in the data set with obese mice is reported as “increase”. The body weight entry with obese mice (obese mice) is “reduction”.

`COc1ccc2cc3[n+](cc2c1OC)CCc1cc2c(cc1-3)OCO2` [berberine]: in data set [1], the GLP-1 secretion result was “dose-dependently stimulate”.
